Measured values as given in article PMC8550792, “Evolution of kinase polypharmacology across HSP90 drug discovery” (Cell Chemical Biology, 2021).

Tests used:
Experiment in all cases: biochemical
Assay type in all cases: biochemical
[1] = biological target: T1, 382 unique human kinases (Homo sapiens, UniProt Q8WTQ7); conditions: GRK7, 10 uM; for remaining activity at 10 µM: read-out: % Enzyme Activity (relative to DMSO controls)
T1 construct: purchased Reaction Biology (HotSpot contract assay)
T1 sequence (Q8WTQ7 1-553): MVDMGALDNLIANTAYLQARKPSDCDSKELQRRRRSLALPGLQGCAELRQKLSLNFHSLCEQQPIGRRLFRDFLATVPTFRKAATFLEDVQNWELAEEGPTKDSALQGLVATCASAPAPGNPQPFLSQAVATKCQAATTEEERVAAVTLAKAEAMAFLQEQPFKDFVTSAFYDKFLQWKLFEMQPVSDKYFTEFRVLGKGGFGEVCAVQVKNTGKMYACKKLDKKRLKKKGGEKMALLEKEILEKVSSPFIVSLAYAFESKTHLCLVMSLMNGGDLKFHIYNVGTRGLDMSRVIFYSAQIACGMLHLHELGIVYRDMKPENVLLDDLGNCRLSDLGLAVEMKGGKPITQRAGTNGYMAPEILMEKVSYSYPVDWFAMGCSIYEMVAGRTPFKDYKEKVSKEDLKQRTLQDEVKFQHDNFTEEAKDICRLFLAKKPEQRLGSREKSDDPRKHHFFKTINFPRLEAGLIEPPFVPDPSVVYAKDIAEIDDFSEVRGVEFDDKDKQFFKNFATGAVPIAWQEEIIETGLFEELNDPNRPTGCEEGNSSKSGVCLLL

[2] = biological target: T2, 382 unique human kinases (Homo sapiens, UniProt Q00526); conditions: kinase CDK3/cyclin E, compound 10 uM; for remaining activity at 10 µM: read-out: % Enzyme Activity (relative to DMSO controls)
T2 construct: purchased Reaction Biology (HotSpot contract assay)

[3] = biological target: T3, 382 unique human kinases (Homo sapiens, UniProt Q76MJ5); conditions: ERN2/IRE2, 10 uM; for remaining activity at 10 µM: read-out: % Enzyme Activity (relative to DMSO controls)
T3 construct: purchased Reaction Biology (HotSpot contract assay)

[4] = biological target: T4, 382 unique human kinases (Homo sapiens, UniProt P41240); conditions: CSK, 10 uM; for remaining activity at 10 µM: read-out: % Enzyme Activity (relative to DMSO controls)
T4 construct: purchased Reaction Biology (HotSpot contract assay)

[5] = biological target: T5, 382 unique human kinases (Homo sapiens, UniProt Q96NX5); conditions: kinase CAMK1g, compound 10 uM; for remaining activity at 10 µM: read-out: % Enzyme Activity (relative to DMSO controls)
T5 construct: purchased Reaction Biology (HotSpot contract assay)

[6] = biological target: T6, 382 unique human kinases (Homo sapiens, UniProt Q8TDC3); conditions: kinase BRSK1, compound 10 uM; for remaining activity at 10 µM: read-out: % Enzyme Activity (relative to DMSO controls)
T6 construct: purchased Reaction Biology (HotSpot contract assay)
T6 sequence (Q8TDC3 1-778): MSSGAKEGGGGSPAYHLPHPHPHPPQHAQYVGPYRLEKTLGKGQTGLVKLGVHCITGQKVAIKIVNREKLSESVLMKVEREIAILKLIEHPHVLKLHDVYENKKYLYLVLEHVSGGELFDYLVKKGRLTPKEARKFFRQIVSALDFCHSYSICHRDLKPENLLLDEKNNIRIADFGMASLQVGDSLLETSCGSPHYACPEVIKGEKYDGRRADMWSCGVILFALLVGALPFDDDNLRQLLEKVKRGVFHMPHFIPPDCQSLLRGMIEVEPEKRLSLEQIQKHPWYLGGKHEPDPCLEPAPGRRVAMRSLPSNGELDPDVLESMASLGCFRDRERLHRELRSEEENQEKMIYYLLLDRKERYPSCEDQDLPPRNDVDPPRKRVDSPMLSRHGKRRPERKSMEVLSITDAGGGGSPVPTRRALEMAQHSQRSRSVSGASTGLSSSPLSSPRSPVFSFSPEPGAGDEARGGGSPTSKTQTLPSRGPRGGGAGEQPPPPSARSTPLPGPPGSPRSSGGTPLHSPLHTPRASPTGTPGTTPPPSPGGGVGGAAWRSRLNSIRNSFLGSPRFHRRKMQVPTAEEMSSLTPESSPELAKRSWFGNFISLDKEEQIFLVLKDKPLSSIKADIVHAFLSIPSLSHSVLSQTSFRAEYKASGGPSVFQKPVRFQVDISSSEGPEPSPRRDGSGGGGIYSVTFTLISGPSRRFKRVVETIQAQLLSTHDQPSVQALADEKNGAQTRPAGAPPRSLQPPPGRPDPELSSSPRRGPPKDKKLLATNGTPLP

[7] = biological target: T7, 382 unique human kinases (Homo sapiens, UniProt P22455, V550E); conditions: FGFR4 (V550E), 10 uM; for remaining activity at 10 µM: read-out: % Enzyme Activity (relative to DMSO controls)
T7 construct: purchased Reaction Biology (HotSpot contract assay)

[8] = biological target: T8, 382 unique human kinases (Homo sapiens, UniProt Q9BYP7); conditions: WNK3, 10 uM; for remaining activity at 10 µM: read-out: % Enzyme Activity (relative to DMSO controls)
T8 construct: purchased Reaction Biology (HotSpot contract assay)

[9] = biological target: T9, 382 unique human kinases (Homo sapiens, UniProt P00519, E255K); conditions: ABL1 (E255K), [ATP] 5 µM, compound 10 uM; for remaining activity at 10 µM: read-out: % Enzyme Activity (relative to DMSO controls)
T9 construct: purchased Reaction Biology (HotSpot contract assay)

[10] = biological target: T10, 382 unique human kinases (Homo sapiens, UniProt Q16654); conditions: PDK4/PDKH4, [ATP] 30 µM
T10 construct: purchased Reaction Biology (HotSpot contract assay)

[11] = biological target: T11, 382 unique human kinases (Homo sapiens, UniProt Q96RG2); conditions: PASK, [ATP] 50 µM
T11 construct: purchased Reaction Biology (HotSpot contract assay)

[12] = compound 1 uM, read-out: % Enzyme Activity (relative to DMSO controls)
[13] = compound 10 uM, read-out: % Enzyme Activity (relative to DMSO controls)

T2 sequence (Q00526 whole entry): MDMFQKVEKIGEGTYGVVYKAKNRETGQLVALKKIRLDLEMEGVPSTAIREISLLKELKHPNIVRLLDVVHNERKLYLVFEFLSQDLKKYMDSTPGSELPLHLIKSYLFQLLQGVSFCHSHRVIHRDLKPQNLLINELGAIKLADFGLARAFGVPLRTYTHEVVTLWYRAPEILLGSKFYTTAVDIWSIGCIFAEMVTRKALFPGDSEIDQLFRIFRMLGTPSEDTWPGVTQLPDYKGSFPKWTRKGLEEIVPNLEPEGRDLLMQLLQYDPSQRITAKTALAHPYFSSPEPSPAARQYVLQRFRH
T9 sequence (P00519 whole entry E255K): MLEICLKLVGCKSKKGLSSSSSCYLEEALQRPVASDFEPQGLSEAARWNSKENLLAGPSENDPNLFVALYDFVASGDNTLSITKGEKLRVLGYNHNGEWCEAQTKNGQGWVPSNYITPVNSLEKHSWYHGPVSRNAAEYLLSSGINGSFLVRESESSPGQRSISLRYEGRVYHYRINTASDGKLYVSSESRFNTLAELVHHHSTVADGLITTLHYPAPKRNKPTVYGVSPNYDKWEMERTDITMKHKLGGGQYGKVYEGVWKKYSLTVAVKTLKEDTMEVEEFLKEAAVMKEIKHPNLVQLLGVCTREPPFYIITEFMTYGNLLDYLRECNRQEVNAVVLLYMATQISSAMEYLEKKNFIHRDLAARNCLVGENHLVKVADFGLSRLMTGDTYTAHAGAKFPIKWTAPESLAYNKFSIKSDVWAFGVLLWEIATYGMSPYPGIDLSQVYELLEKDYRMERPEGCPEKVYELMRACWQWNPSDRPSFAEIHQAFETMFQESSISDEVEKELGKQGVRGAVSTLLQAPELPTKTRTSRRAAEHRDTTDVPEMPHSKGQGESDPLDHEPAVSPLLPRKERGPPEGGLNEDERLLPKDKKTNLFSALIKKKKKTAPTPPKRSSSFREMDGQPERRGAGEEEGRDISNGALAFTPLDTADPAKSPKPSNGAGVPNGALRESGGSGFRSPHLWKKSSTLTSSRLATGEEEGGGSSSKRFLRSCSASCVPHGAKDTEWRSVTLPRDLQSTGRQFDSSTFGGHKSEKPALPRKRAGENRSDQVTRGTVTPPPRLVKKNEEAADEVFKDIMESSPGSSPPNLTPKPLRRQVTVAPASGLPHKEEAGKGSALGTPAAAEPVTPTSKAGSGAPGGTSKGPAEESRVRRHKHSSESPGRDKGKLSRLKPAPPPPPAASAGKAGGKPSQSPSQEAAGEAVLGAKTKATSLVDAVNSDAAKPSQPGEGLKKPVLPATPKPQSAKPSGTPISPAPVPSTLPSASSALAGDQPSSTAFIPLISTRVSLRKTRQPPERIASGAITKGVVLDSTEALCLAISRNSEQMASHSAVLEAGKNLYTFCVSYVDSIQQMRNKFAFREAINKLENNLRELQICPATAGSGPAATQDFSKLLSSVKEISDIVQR
T10 sequence (Q16654 whole entry): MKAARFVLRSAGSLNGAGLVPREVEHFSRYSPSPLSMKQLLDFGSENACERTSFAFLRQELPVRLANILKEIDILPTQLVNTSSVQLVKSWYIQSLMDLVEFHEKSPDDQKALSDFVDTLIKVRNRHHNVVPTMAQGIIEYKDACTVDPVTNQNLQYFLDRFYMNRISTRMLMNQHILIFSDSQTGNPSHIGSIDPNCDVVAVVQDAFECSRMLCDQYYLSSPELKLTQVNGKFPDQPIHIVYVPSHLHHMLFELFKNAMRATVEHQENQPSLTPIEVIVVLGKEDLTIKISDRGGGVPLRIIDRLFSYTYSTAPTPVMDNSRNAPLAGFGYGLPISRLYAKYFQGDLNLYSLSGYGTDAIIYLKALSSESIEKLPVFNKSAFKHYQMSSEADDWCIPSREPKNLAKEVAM
T3 sequence (Q76MJ5 35-926): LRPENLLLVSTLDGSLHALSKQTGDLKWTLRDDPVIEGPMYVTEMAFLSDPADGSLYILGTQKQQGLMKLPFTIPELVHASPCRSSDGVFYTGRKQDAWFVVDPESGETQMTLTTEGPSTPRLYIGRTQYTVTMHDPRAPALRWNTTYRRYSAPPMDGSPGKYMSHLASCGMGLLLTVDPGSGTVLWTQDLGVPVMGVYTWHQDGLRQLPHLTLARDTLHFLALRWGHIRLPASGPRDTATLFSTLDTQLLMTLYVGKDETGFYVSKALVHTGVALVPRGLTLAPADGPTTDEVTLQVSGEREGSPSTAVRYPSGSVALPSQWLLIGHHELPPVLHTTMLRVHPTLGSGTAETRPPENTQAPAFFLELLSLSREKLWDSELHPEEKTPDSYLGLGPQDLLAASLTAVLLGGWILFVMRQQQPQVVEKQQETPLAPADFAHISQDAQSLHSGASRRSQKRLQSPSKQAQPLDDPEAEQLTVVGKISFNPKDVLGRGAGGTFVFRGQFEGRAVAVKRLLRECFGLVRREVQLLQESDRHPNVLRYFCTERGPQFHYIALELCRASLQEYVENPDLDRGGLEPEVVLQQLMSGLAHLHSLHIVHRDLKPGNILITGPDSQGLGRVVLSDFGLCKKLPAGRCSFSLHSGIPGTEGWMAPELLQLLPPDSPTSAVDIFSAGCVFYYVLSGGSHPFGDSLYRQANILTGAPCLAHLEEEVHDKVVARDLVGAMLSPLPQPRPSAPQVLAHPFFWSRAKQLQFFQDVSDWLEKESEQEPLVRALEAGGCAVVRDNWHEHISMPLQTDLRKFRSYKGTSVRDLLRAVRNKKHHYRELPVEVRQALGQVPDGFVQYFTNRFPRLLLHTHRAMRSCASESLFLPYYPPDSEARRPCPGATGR
T4 sequence (P41240 whole entry): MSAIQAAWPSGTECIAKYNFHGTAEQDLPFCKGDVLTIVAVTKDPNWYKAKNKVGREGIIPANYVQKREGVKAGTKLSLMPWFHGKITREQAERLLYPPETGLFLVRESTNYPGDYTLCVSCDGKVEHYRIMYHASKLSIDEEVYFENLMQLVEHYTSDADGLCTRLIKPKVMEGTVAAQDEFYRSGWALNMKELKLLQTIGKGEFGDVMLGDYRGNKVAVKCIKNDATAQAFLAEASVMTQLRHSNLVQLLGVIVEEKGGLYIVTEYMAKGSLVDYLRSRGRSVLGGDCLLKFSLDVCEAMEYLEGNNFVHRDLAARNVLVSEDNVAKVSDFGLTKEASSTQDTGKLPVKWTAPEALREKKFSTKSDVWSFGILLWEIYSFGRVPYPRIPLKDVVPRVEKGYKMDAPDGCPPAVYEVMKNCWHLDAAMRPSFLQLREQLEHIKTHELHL
T8 sequence (Q9BYP7 whole entry): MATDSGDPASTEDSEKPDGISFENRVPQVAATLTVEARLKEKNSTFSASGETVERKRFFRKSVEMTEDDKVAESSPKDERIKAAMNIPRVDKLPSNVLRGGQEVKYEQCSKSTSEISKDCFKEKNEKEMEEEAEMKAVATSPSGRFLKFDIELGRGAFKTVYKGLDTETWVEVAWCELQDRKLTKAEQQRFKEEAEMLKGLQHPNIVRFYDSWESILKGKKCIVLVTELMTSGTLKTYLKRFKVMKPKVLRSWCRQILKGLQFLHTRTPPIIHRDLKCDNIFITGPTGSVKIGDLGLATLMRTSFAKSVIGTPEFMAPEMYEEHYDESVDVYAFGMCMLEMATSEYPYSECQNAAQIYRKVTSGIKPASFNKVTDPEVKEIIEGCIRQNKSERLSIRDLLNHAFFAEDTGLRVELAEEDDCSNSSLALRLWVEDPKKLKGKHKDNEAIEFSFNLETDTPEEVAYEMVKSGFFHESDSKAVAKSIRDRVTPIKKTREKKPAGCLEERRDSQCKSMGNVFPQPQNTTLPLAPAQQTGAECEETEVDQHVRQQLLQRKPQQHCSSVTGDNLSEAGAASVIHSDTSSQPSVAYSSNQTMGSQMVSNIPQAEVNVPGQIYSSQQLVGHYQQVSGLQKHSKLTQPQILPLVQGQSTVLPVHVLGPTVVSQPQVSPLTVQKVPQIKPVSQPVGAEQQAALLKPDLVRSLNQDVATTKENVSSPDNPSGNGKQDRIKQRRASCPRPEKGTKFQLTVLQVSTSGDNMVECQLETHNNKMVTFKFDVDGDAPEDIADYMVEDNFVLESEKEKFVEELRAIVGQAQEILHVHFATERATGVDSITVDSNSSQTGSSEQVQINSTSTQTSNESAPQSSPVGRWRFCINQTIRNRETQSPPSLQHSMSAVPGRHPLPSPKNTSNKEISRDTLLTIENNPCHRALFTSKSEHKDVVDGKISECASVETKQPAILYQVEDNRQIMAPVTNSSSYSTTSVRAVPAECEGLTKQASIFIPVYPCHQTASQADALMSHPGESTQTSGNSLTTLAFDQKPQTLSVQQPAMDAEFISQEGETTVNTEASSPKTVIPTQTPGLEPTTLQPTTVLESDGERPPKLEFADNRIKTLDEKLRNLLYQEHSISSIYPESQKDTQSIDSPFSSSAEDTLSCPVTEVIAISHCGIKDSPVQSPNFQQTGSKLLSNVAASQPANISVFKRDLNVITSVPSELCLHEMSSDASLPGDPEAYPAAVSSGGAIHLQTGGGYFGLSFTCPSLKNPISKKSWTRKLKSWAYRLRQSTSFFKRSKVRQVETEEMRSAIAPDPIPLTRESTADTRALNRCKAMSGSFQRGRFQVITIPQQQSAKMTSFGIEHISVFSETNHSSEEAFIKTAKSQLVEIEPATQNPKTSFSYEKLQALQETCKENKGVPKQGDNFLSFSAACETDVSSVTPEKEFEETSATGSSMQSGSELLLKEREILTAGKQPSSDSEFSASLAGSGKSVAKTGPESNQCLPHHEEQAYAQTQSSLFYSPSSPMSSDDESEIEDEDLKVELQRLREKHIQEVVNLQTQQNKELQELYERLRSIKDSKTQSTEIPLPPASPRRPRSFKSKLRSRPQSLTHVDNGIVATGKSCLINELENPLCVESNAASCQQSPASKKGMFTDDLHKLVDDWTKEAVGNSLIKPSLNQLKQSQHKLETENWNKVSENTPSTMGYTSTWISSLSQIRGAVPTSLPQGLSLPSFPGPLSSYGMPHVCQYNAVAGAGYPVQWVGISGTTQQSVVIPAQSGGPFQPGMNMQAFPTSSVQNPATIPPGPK

SMILES | remaining activity at 10 µM [1] [%] | remaining activity at 10 µM [2] [%] | remaining activity at 10 µM [3] [%] | remaining activity at 10 µM [4] [%] | remaining activity at 10 µM [5] [%] | remaining activity at 10 µM [6] [%] | remaining activity at 10 µM [7] [%] | remaining activity at 10 µM [8] [%] | remaining activity at 10 µM [9] [%] | remaining activity at 10 µM [10, 13] [%] | remaining activity at 10 µM [11, 13] [%] | further results
CC(C)c1cc(-c2n[nH]c(=O)n2-c2ccc3c(ccn3C)c2)c(O)cc1O [Ganetespib (STA9090)] | 75.4 | 82.2 | 66.7 | 70.3 | 86.8 | 81.4 | – | – | – | – | – | –
CC(C)c1cc(-c2n[nH]c(=O)n2-c2ccc3c(ccn3C)c2)c(O)cc1O [Ganetespib] | – | – | – | – | – | – | 96.9 | 98.1 | 4.77 | 6.83 | 12.1 | remaining activity at 1 µM [10, 12]: 26.8%; remaining activity at 1 µM [11, 12]: 49.7%
CCNC(=O)c1noc(-c2cc(C(C)C)c(O)cc2O)c1-c1ccc(CN2CCOCC2)cc1 [Luminespib] | – | – | – | – | – | – | 101 | 112 | 14.7 | 29.9 | 99 | % Enzyme Activity (relative to DMSO controls) [7]: 100.42%; % Enzyme Activity (relative to DMSO controls) [8]: 110.27%; % Enzyme Activity (relative to DMSO controls) [9]: 14.20%; % Enzyme Activity (relative to DMSO controls) ([10]; compound 10 uM): 27.75%; % Enzyme Activity (relative to DMSO controls) ([11]; compound 10 uM): 98.65%
CCNC(=O)c1noc(-c2cc(C(C)C)c(O)cc2O)c1-c1ccc(CN2CCOCC2)cc1 [Luminespib (AUY-922)] | 96.7 | 103 | 108 | 74.1 | 97.8 | 100 | – | – | – | – | – | % Enzyme Activity (relative to DMSO controls) [1]: 95.66%; % Enzyme Activity (relative to DMSO controls) [2]: 102.34%; % Enzyme Activity (relative to DMSO controls) [3]: 105.69%; % Enzyme Activity (relative to DMSO controls) [4]: 73.41%; % Enzyme Activity (relative to DMSO controls) [5]: 93.84%; % Enzyme Activity (relative to DMSO controls) [6]: 99.19%
